Values of other authors, collected in patent US20190383817A1, “PREDICTING RESPONSE TO IMMUNOMODULATORY DRUGS (IMIDS) IN MULTIPLE MYELOMA PATIENTS” (SKYLINEDX B.V., priority 2016, published 2019).

Assays:
[1] = tested on: IKAROS transcription factors; settings: compared with thalidomide
MM patients = settings: compared against non-Bortezomib containing regimes such as VAD
CRBN = settings: comparison among thalidomide, lenalidomide, pomalidomide

Row | binding to CRBN (CRBN) | Compound | efficiency at targeting IKAROS transcription factors for degradation by CRBN [1] | Overall Survival (OS) (MM patients) | Progression Free Survival (PFS) (MM patients)
1 |  | Cc1cccc2c1C(=O)N(C1CCC(=O)NC1=O)C2=O (stereo not drawn) [2-(2,6-dioxopiperidin-3-yl)-4-methylisoindoline-1,3-dione] | more efficient |  | 
2 |  | CC(C)C[C@H](NC(=O)[C@H](Cc1ccccc1)NC(=O)c1cnccn1)B(O)O [Bortezomib] |  | significantly prolonged | significantly prolonged
3 | bind similarly to CRBN | O=C1CCC(N2C(=O)c3ccccc3C2=O)C(=O)N1 (stereo not drawn) [thalidomide, 2-(2,6-dioxopiperidin-3-yl)-1H-isoindole-1,3(2H)-dione] |  |  | 
4 | bind similarly to CRBN | Nc1cccc2c1C(=O)N(C1CCC(=O)NC1=O)C2=O (stereo not drawn) [pomalidomide, 4-Amino-2-(2,6-dioxopiperidin-3-yl)isoindole-1,3-dione] | more efficient |  | 
